Assay results published in patent publication US20130217578A1, “Growth inhibition of perennial forage grasses with Pyroxsulam” (Dow AgroSciences LLC, priority 2010, published 2013).

Columns and labels:
Format in all cases: in vivo
[1] = system: meadow Bromegrass (BROCO, Bromus commutatus); assay: Field trial: height of meadow Bromegrass after pyroxsulam application; details: for Height (cm): mean of 3 replicates
Procedure: (§1) Trials were conducted under field conditions in Canada. Trial sites were located in perennial forage grass areas. Forage grasses tested included: Bromegrass, Timothy Fescue and Wheatgrass species, including: meadow Bromegrass (BROCO, Bromus commutatus), smooth Brome grass (BROIN, Bromus inermus), Timothy (PHLPR, Phleum pretense), creeping red Fescue (FESRU, Festuca rubra), Tall Fescue (FESAR, Festuca arundinacea), and Western Wheatgrass (AGRSM, Agropyron smithii). The grasses were grown using normal cultural practices for fertilization, seeding, and maintenance to ensure good growth of the grasses. The trials were conducted using normal research methodology. Trial plots were between 2 to 5 meters (m) wide by 5 to 20 m long. All treatments were applied using a randomized complete block trial design with 3 or 4 replications per treatment. The trial sites had populations of homogeneous or heterogeneous perennial forage grass species present. Treatments consisted of pyroxsulam formulations (Simplicity® (trademark of Dow AgroSciences LLC for pyroxsulam+cloquintocet) or water-dispersible formulations of pyroxsulam) alone, or in tank mixes with Milestone® herbicide (trademark of Dow AgroSciences LLC for aminopyralid) or ClearView® herbicide (trademark of Dow AgroSciences LLC for aminopyralid+metsulfuron-methyl) with or without 2,4-D ester applied in water. Adjuvants were applied at 0.2% to 0.5% V/V. The application volumes were between 50 to 200 liters per hectare (L/ha). All application were made using precision gas hand sprayers or calibrated ATV sprayer using a 2 or 5 m boom using flat fan (80° or 110°) nozzles to broadcast the treatments post-emergent on the vegetation or soil.
(§2) The treated plots and control plots were rated blind at various intervals after application. Ratings were based on Percent (%) Visual growth suppression (reduction) from untreated grass, where […] or growth inhibition compared to the untreated grass growth. Quantitative measurements were also taken at various intervals after application, and measured in cm or inches height of leaf blade top height from the ground.

[2] = system: All grass species combined (CRFescue, Brome Grass, Quackgrass); assay: Field trial: biomass reduction of pyroxsulam-treated vs untreated grass; details: 30 DAA
Procedure: Trials were conducted under field conditions in Canada. Trial sites were located in perennial forage grass areas. Forage grasses tested included: Bromegrass, Timothy Fescue and Wheatgrass species, including: meadow Bromegrass (BROCO, Bromus commutatus), smooth Brome grass (BROIN, Bromus inermus), Timothy (PHLPR, Phleum pretense), creeping red Fescue (FESRU, Festuca rubra), Tall Fescue (FESAR, Festuca arundinacea), and Western Wheatgrass (AGRSM, Agropyron smithii). The grasses were grown using normal cultural practices for fertilization, seeding, and maintenance to ensure good growth of the grasses. The trials were conducted using normal research methodology. Trial plots were between 2 to 5 meters (m) wide by 5 to 20 m long. All treatments were applied using a randomized complete block trial design with 3 or 4 replications per treatment. The trial sites had populations of homogeneous or heterogeneous perennial forage grass species present. […]
The treated plots and control plots were rated blind at various intervals after application. […] Quantitative measurements were also taken at various intervals after application, and measured in cm or inches height of leaf blade top height from the ground.

[3] = system: creeping red Fescue (FESRU, Festuca rubra); assay: Field trial: percent growth inhibition of creeping red Fescue
Procedure: as §1, §2

[4] = 15 g ai/ha, 0 days after application
[5] = 15 g ai/ha, 7 days after application
[6] = 15 g ai/ha, 14 days after application
[7] = 15 g ai/ha, 21 days after application
[8] = 15 g ai/ha, 30 days after application
[9] = 15 g ai/ha, 37 days after application
[10] = 15 g ai/ha, 42 days after application
[11] = 15 g ai/ha, 50 days after application
[12] = 15 g ai/ha, 56 days after application
[13] = 15 g ai/ha, 65 days after application
[14] = 15 g ai/ha, 72 days after application
[15] = 30 g ai/ha, 0 days after application
[16] = 30 g ai/ha, 7 days after application
[17] = 30 g ai/ha, 14 days after application
[18] = 30 g ai/ha, 21 days after application
[19] = 30 g ai/ha, 30 days after application
[20] = 30 g ai/ha, 37 days after application
[21] = 30 g ai/ha, 42 days after application
[22] = 30 g ai/ha, 50 days after application
[23] = 30 g ai/ha, 56 days after application
[24] = 30 g ai/ha, 65 days after application
[25] = 30 g ai/ha, 72 days after application

For `COc1cc(OC)n2nc(NS(=O)(=O)c3c(C(F)(F)F)ccnc3OC)nc2n1` [Pyroxsulam, N-(5,7-dimethoxy[1,2,4]-triazolo[1,5-α]pyrimidin-2-yl)-2-methoxy-4-(trifluoromethyl)-3-pyridinesulfonamide], the “Height (% of Untreated)” value [1, 4] was 100.0%, the “Height (cm)” value [1, 4] was 20 cm and the “Height (% of Untreated)” value [1, 5] was 57.1%. For the same compound, the “Height (cm)” value [1, 5] was 20 cm, the “Height (% of Untreated)” value [1, 6] was 50.0% and the “Height (cm)” value [1, 6] was 25 cm. For the same compound, the “Height (% of Untreated)” value [1, 7] was 47.6%, the “Height (cm)” value [1, 7] was 30 cm and the “Height (% of Untreated)” value [1, 8] was 45.0%. The “Height (cm)” value [1, 8] was 27 cm, the “Height (% of Untreated)” value [1, 9] was 43.1% and the “Height (cm)” value [1, 9] was 28 cm. For the same compound, the “Height (% of Untreated)” value [1, 10] was 45.2%, the “Height (cm)” value [1, 10] was 33 cm and the “Height (% of Untreated)” value [1, 11] was 53.8%. The “Height (cm)” value [1, 11] was 42 cm, the “Height (% of Untreated)” value [1, 12] was 52.4% and the “Height (cm)” value [1, 12] was 43 cm. For the same compound, the “Height (% of Untreated)” value [1, 13] was 58.5%, the “Height (cm)” value [1, 13] was 48 cm and the “Height (% of Untreated)” value [1, 14] was 76.8%. For the same compound, the “Height (cm)” value [1, 14] was 63 cm, the “Height (% of Untreated)” value [1, 15] was 100.0% and the “Height (cm)” value [1, 15] was 20 cm. The “Height (% of Untreated)” value [1, 16] was 57.1%, the “Height (cm)” value [1, 16] was 20 cm and the “Height (% of Untreated)” value [1, 17] was 50.0%. For the same compound, the “Height (cm)” value [1, 17] was 25 cm, the “Height (% of Untreated)” value [1, 18] was 44.4% and the “Height (cm)” value [1, 18] was 28 cm. The “Height (% of Untreated)” value [1, 19] was 41.7%, the “Height (cm)” value [1, 19] was 25 cm and the “Height (% of Untreated)” value [1, 20] was 38.5%. For the same compound, the “Height (cm)” value [1, 20] was 25 cm, the “Height (% of Untreated)” value [1, 21] was 45.2% and the “Height (cm)” value [1, 21] was 33 cm. For the same compound, the “Height (% of Untreated)” value [1, 22] was 51.3%, the “Height (cm)” value [1, 22] was 40 cm and the “Height (% of Untreated)” value [1, 23] was 51.2%. The “Height (cm)” value [1, 23] was 42 cm, the “Height (% of Untreated)” value [1, 24] was 52.4% and the “Height (cm)” value [1, 24] was 43 cm. The “Height (% of Untreated)” value [1, 25] was 57.3%, the “Height (cm)” value [1, 25] was 47 cm and the “Biomass reduction (%)” value ([2]; 15 g/ha) was 40%. For the same compound, the “Biomass reduction (%)” value ([2]; 30 g/ha) was 38%, the “% Growth Inhibition” value ([3]; 15 g ai/ha, week 1) was 0% and the “% Growth Inhibition” value ([3]; 15 g ai/ha, week 2) was 7%. For the same compound, the “% Growth Inhibition” value ([3]; 15 g ai/ha, week 3) was 35%, the “% Growth Inhibition” value ([3]; 15 g ai/ha, week 4) was 30% and the “% Growth Inhibition” value ([3]; 15 g ai/ha, week 5) was 23%. For the same compound, the “% Growth Inhibition” value ([3]; 15 g ai/ha, week 6) was 21%, the “% Growth Inhibition” value ([3]; 15 g ai/ha, week 7) was 15% and the “% Growth Inhibition” value ([3]; 15 g ai/ha, week 8) was 4%. The “% Growth Inhibition” value ([3]; 15 g ai/ha, week 9) was 8%, the “% Growth Inhibition” value ([3]; 15 g ai/ha, week 10) was 12% and the “% Growth Inhibition” value ([3]; 30 g ai/ha, week 1) was 0%. The “% Growth Inhibition” value ([3]; 30 g ai/ha, week 2) was 14%, the “% Growth Inhibition” value ([3]; 30 g ai/ha, week 3) was 35% and the “% Growth Inhibition” value ([3]; 30 g ai/ha, week 4) was 32%. The “% Growth Inhibition” value ([3]; 30 g ai/ha, week 5) was 32%, the “% Growth Inhibition” value ([3]; 30 g ai/ha, week 6) was 21% and the “% Growth Inhibition” value ([3]; 30 g ai/ha, week 7) was 19%. For the same compound, the “% Growth Inhibition” value ([3]; 30 g ai/ha, week 8) was 12%, the “% Growth Inhibition” value ([3]; 30 g ai/ha, week 9) was 4% and the “% Growth Inhibition” value ([3]; 30 g ai/ha, week 10) was 12%.
